One assay has as its system E. coli K-12 strain. Description: MIC (MIC90) by broth microdilution, E. coli K-12 strain expressing TEM β-lactamase variants. The format is cell-based. As to conditions: for MIC: E. coli K-12 strain, no plasmid (no TEM β-lactamase), MIC90. Here is the method: (§1) Plasmids were then transformed into BL21(DE3) cells (Intact Genomics) and DH5a cells (Life Technologies) to create strains in which β-lactamases are expressed using a native promoter.
(§2) Antibiotic resistance of the strains was determined by measuring their minimum inhibitory concentrations (MIC90's) using the broth microdilution method according to the Clinical and Laboratory Standards Institute (CLSI, formerly the NCCLS) guidelines (CLSI document M07-A9, 2012). Each well of a 96-well microtiter plate was filled with 75 μL of sterile Mueller Hinton II (MHII) media broth (Sigma). Each antibiotic was dissolved in water making a 20 mM solution, then diluted with sterile MHII media broth to […] (BP) or 288 μM (CFX). Exactly 75 μL of the compound solution was added to the first well of the microtiter plate and 2-fold serial dilutions were made down each row of the plate. Exactly 75 μL of bacterial inoculum (5×10^5 CFU/mL) was then added to each well giving a total volume of 150 μL/well and compound concentration gradients of […] (BP) and 72 μM-0.04 μM (CXF). The plate was incubated at 37° C. for 17 h, and then each well was examined for bacterial growth. The MIC90 was recorded as the lowest compound concentration required to inhibit 90% of bacterial growth as judged by turbidity of the culture media relative to a row of wells filled with a water standard. Gentamicin was included in a control row at a concentration gradient of 174 μM-0.09 μM.

For a further assay, the system named is E. coli B strain. Description: MIC (MIC90) by broth microdilution, E. coli B strain expressing TEM β-lactamase variants. Format: cell-based. The following applies: for MIC: E. coli B strain, no plasmid (no TEM β-lactamase), MIC90. Here is the method:
as §1, §2
(Broth dilution looks for growth in wells or tubes with falling amounts of substance.)

In brackets after ≈: the same amount, converted by molar mass.

For the molecule `CC1(C)S[C@@H]2[C@H](NC(=O)Cc3ccccc3)C(=O)N2[C@H]1C(=O)O` [BP, benzylpenicillin], the MIC was 50 µM (≈ 16.7 µg/mL) in the assay on E. coli K-12 strain (Escherichia coli, K12STRAIN) and below 23 µM against E. coli B strain (Escherichia coli).

As for Gentamicin, the figures for the MIC in the assay with E. coli K-12 strain and in the assay with E. coli B strain were 0.34 µM and 0.68 µM, respectively.

With `CO/N=C(\C(=O)N[C@@H]1C(=O)N2C(C(=O)O)=C(COC(C)=O)CS[C@H]12)c1csc(N)n1` [CFX, cefotaxime], the MIC in the assay with E. coli K-12 strain and in the assay on E. coli B strain was below 0.035 µM throughout.

B1: TEM-1: wild-type TEM β-lactamase reference (protein, UniProt P62593 24-286, looked up)
Beta-lactamase TEM: HPETLVKVKDAEDQLGARVGYIELDLNSGKILESFRPEERFPMMSTFKVLLCGAVLSRVDAGQEQLGRRIHYSQNDLVEYSPVTEKHLTDGMTVRELCSAAITMSDNTAANLLLTTIGGPKELTAFLHNMGDHVTRLDRWEPELNEAIPNDERDTTMPAAMATTLRKLLTGELLTLASRQQLIDWMEADKVAGPLLRSALPAGWFIADKSGAGERGSRGIIAALGPDGKPSRIVVIYTTGSQATMDERNRQIAEIGASLIKHW
Take B1: the “BP MIC” value was 24000 µM in the assay with E. coli K-12 strain (benzylpenicillin (BP), E. coli K-12 strain expressing the TEM variant, MIC90, 37° C., 17 h) and 24000 µM in the assay with E. coli B strain (benzylpenicillin (BP), E. coli B strain expressing the TEM variant, MIC90, 37° C., 17 h, most commonly observed value, error +/− one well). Besides, the “CFX MIC” value in the assay on E. coli K-12 strain (cefotaxime (CFX), E. coli K-12 strain expressing the TEM variant, MIC90, 37° C., 17 h) was below 0.035 µM; in the assay with E. coli B strain (cefotaxime (CFX), E. coli B strain expressing the TEM variant, MIC90, 37° C., 17 h) it was below 0.035 µM. Further, the “Gentamicin MIC” value in the assay with E. coli K-12 strain (gentamicin (control antibiotic), E. coli K-12 strain expressing the TEM variant, MIC90, 37° C., 17 h) came out at 0.17 µM; in the assay with E. coli B strain (gentamicin (control antibiotic), E. coli B strain expressing the TEM variant, MIC90, 37° C., 17 h), 0.68 µM.

In general, MIC refers to the least concentration at which growth counts as inhibited. Higher therefore signals a need for much substance.

The record behind these values is US11710542B2, “Methods of protein docking and rational drug design” (priority 2016, dated 2023).
